Data taken from paper PMC5572576 (The Lancet. Oncology, 2017).
Read-outs that look alike come from different tables or passages of the source. Marks after values point to notes of the source that are not given here.

System: patients with R/R AML
[1] = 120 mg, possibly related to treatment

CCc1nc(C(N)=O)c(Nc2ccc(N3CCC(N4CCN(C)CC4)CC3)c(OC)c2)nc1NC1CCOCC1 [gilteritinib]
Deaths, primary cause AML (20 mg): 3 n
Deaths, primary cause Intracranial hemorrhage (20 mg, one death considered possibly related to treatment): 2 ^c n
Deaths, primary cause AML (40 mg): 5 n
Deaths, primary cause Multi-organ failure (40 mg): 1 n
Deaths, primary cause AML (80 mg): 5 n
Deaths, primary cause Bacteremia/staphylococcal bacteremia (80 mg): 2 n
Deaths, primary cause Diabetic ketoacidosis (80 mg): 1 n
Deaths, primary cause Respiratory failure (80 mg): 1 n
Treatment-related Grade ≥3 elevated AST (80 mg/d): 1 n
Treatment-related Grade ≥3 elevated alanine aminotransferase (80 mg/d): 1 n
Deaths, primary cause Septic shock (80 mg, one death considered possibly related to treatment): 2 ^c n
Deaths, primary cause Hemoptysis (80 mg, possibly related to treatment): 1 ^b n
Deaths, primary cause AML (120 mg): 10 n
Deaths, primary cause Colitis/neutropenic colitis (120 mg): 1 n
Deaths, primary cause Death NOS (120 mg): 2 n
Deaths, primary cause Hepatic infection (120 mg): 1 n
Deaths, primary cause Multi-organ failure (120 mg): 1 n
Deaths, primary cause Pneumonia (120 mg): 2 n
Deaths, primary cause Respiratory failure (120 mg): 1 n
Deaths, primary cause Sepsis/staphylococcal sepsis (120 mg): 1 n
Treatment-related Grade ≥3 diarrhea (120 mg/d): 1 n
Treatment-related Grade ≥3 elevated alanine aminotransferase (120 mg/d): 1 n
Deaths, primary cause Neutropenia [1]: 1 ^b n
Deaths, primary cause Ventricular fibrillation [1]: 1 ^b n
Deaths, primary cause AML (200 mg): 13 n
Deaths, primary cause Anemia (200 mg): 1 n
Deaths, primary cause Bronchopulmonary aspergillosis (200 mg): 1 n
Deaths, primary cause Cardiac arrest (200 mg): 1 n
Deaths, primary cause Cellulitis (200 mg): 1 n
Deaths, primary cause Cerebrovascular ischemia (200 mg): 1 n
Deaths, primary cause Colitis/neutropenic colitis (200 mg): 1 n
Deaths, primary cause Death NOS (200 mg): 1 n
Deaths, primary cause Febrile neutropenia (200 mg): 1 n
Deaths, primary cause Hypoxia (200 mg): 1 n
Deaths, primary cause Intracranial hemorrhage (200 mg): 1 n
Deaths, primary cause Loss of consciousness (200 mg): 1 n
Deaths, primary cause Lung infection (200 mg): 1 n
Deaths, primary cause Multi-organ failure (200 mg): 5 n
Deaths, primary cause Pneumonia (200 mg): 2 n
Deaths, primary cause Renal failure (200 mg): 1 n
Deaths, primary cause Respiratory failure (200 mg): 5 n
Deaths, primary cause Sepsis/staphylococcal sepsis (200 mg): 8 n
Deaths, primary cause Septic shock (200 mg): 2 n
Deaths, primary cause Sudden death (200 mg): 1 n
Deaths, primary cause Ventricular tachycardia (200 mg): 1 n
Treatment-related Grade ≥3 diarrhea (200 mg/d): 2 n
Treatment-related Grade ≥3 elevated AST (200 mg/d): 3 n
Treatment-related Grade ≥3 elevated alanine aminotransferase (200 mg/d): 4 n
Deaths, primary cause Pulmonary embolism (200 mg, possibly related to treatment): 1 ^b n
Deaths, primary cause AML (300 mg): 5 n
Deaths, primary cause Renal failure (300 mg): 1 n
Deaths, primary cause Respiratory failure (300 mg): 1 n
Treatment-related Grade ≥3 elevated AST (300 mg/d): 1 n
Deaths, primary cause Cardiac arrest (450 mg): 1 n
Urinary tract infection, Grade 3 (Table 2): 12 (5%) n (%)
Probability of experiencing a DLT (doses up to 200mg): < 20%
AE associated with dose reductions: diarrhea (human, in vivo): 1%
AE associated with dose reductions: fatigue (human, in vivo): 1%
AE that led to study discontinuation: progressive disease (human, in vivo): 6%
AE that led to study discontinuation: sepsis (human, in vivo): 3%
Acute renal failure, Grade 1 (human, in vivo): 7 (3%) n (%)
Acute renal failure, Grade 2 (human, in vivo): 9 (4%) n (%)
Acute renal failure, Grade 3 (human, in vivo): 8 (3%) n (%)
Acute renal failure, Grade 4 (human, in vivo): 1 (0·4%) n (%)
Anemia, Grade 1 (human, in vivo): 1 (0·4%) n (%)
Anemia, Grade 2 (human, in vivo): 23 (9%) n (%)
Anemia, Grade 3 (human, in vivo): 55 (22%) n (%)
Anemia, Grade 4 (human, in vivo): 6 (2%) n (%)
Anemia, Grade 5 (human, in vivo): 1 (0·4%) n (%)
Arthralgia, Grade 1 (human, in vivo): 19 (8%) n (%)
Arthralgia, Grade 2 (human, in vivo): 8 (3%) n (%)
Asthenia, Grade 1 (human, in vivo): 14 (6%) n (%)
Asthenia, Grade 2 (human, in vivo): 10 (4%) n (%)
Asthenia, Grade 3 (human, in vivo): 6 (2%) n (%)
Atrial fibrillation, Grade 3 (human, in vivo): 5 (2%) n (%)
Back pain, Grade 3 (human, in vivo): 5 (2%) n (%)
Bacteremia, Grade 3 (human, in vivo): 13 (5%) n (%)
Bacteremia, Grade 4 (human, in vivo): 3 (1·2%) n (%)
Bacteremia, Grade 5 (human, in vivo): 1 (0·4%) n (%)
Cellulitis, Grade 3 (human, in vivo): 7 (3%) n (%)
Cellulitis, Grade 5 (human, in vivo): 1 (0·4%) n (%)
Clostridium difficile colitis, Grade 3 (human, in vivo): 5 (2%) n (%)
Constipation, Grade 1 (human, in vivo): 40 (16%) n (%)
Constipation, Grade 2 (human, in vivo): 17 (7%) n (%)
Cough, Grade 1 (human, in vivo): 40 (16%) n (%)
Cough, Grade 2 (human, in vivo): 14 (6%) n (%)
Decreased appetite, Grade 1 (human, in vivo): 12 (5%) n (%)
Decreased appetite, Grade 2 (human, in vivo): 18 (7%) n (%)
Decreased neutrophil count, Grade 2 (human, in vivo): 5 (2%) n (%)
Decreased neutrophil count, Grade 3 (human, in vivo): 7 (3%) n (%)
Decreased neutrophil count, Grade 4 (human, in vivo): 14 (6%) n (%)
Decreased platelet count, Grade 1 (human, in vivo): 1 (0·4%) n (%)
Decreased platelet count, Grade 2 (human, in vivo): 3 (1·2%) n (%)
Decreased platelet count, Grade 3 (human, in vivo): 7 (3%) n (%)
Decreased platelet count, Grade 4 (human, in vivo): 30 (12%) n (%)
Decreased white blood cell count, Grade 3 (human, in vivo): 6 (2%) n (%)
Decreased white blood cell count, Grade 4 (human, in vivo): 9 (4%) n (%)
Diarrhea, Grade 1 (human, in vivo): 47 (19%) n (%)
Diarrhea, Grade 2 (human, in vivo): 32 (13%) n (%)
Diarrhea, Grade 3 (human, in vivo): 13 (5%) n (%)
Dizziness, Grade 1 (human, in vivo): 36 (14%) n (%)
Dizziness, Grade 2 (human, in vivo): 11 (4%) n (%)
Drug-related TEAEs leading to discontinuation (human, in vivo): 10%
Dysgeusia, Grade 1 (human, in vivo): 23 (9%) n (%)
Dysgeusia, Grade 2 (human, in vivo): 4 (1·6%) n (%)
Dyspnea, Grade 1 (human, in vivo): 29 (12%) n (%)
Dyspnea, Grade 2 (human, in vivo): 18 (7%) n (%)
Dyspnea, Grade 3 (human, in vivo): 11 (4%) n (%)
Dyspnea, Grade 4 (human, in vivo): 1 (0.4%) n (%)
Edema peripheral, Grade 1 (human, in vivo): 43 (17%) n (%)
Edema peripheral, Grade 2 (human, in vivo): 21 (8%) n (%)
Edema peripheral, Grade 3 (human, in vivo): 3 (1.2%) n (%)
Elevated ALT, Grade 1 (human, in vivo): 25 (10%) n (%)
Elevated ALT, Grade 2 (human, in vivo): 9 (4%) n (%)
Elevated ALT, Grade 3 (human, in vivo): 13 (5%) n (%)
Elevated AST, Grade 1 (human, in vivo): 33 (13%) n (%)
Elevated AST, Grade 2 (human, in vivo): 18 (7%) n (%)
Elevated AST, Grade 3 (human, in vivo): 14 (6%) n (%)
Elevated AST, Grade 4 (human, in vivo): 1 (0·4%) n (%)
Elevated blood alkaline phosphatase, Grade 1 (human, in vivo): 28 (11%) n (%)
Elevated blood alkaline phosphatase, Grade 2 (human, in vivo): 5 (2%) n (%)
Elevated blood bilirubin, Grade 3 (human, in vivo): 6 (2%) n (%)
Elevated blood bilirubin, Grade 4 (human, in vivo): 1 (0·4%) n (%)
Elevated blood creatinine, Grade 1 (human, in vivo): 23 (9%) n (%)
Elevated blood creatinine, Grade 2 (human, in vivo): 12 (5%) n (%)
Elevated blood phosphocreatine kinase, Grade 1 (human, in vivo): 7 (3%) n (%)
Elevated blood phosphocreatine kinase, Grade 2 (human, in vivo): 7 (3%) n (%)
Elevated blood phosphocreatine kinase, Grade 3 (human, in vivo): 7 (3%) n (%)
